From the kinase profiling compilation of Christmann-Franck et al. (2016)

Experiments:
Assay in all cases: radiometric filter-binding kinase assay
[1] = system: AKT2 (human), P31751 [S474D]
BTK (human) = BTK (human) (UniProt Q06187); details: compound 1000.0 µM
CDK2 CCNA2 (human) = CDK2 CCNA2 (human) (UniProt P20248+P24941)
CHEK2 (human) = CHEK2 (human) (UniProt O96017)
CSK (human) = CSK (human) (UniProt P41240)
CSNK1D (human) = CSNK1D (human) (UniProt P48730)
EPHA4 (human) = EPHA4 (human) (UniProt P54764)
Sequence of EPHA4 (human) (P54764 whole entry, looked up): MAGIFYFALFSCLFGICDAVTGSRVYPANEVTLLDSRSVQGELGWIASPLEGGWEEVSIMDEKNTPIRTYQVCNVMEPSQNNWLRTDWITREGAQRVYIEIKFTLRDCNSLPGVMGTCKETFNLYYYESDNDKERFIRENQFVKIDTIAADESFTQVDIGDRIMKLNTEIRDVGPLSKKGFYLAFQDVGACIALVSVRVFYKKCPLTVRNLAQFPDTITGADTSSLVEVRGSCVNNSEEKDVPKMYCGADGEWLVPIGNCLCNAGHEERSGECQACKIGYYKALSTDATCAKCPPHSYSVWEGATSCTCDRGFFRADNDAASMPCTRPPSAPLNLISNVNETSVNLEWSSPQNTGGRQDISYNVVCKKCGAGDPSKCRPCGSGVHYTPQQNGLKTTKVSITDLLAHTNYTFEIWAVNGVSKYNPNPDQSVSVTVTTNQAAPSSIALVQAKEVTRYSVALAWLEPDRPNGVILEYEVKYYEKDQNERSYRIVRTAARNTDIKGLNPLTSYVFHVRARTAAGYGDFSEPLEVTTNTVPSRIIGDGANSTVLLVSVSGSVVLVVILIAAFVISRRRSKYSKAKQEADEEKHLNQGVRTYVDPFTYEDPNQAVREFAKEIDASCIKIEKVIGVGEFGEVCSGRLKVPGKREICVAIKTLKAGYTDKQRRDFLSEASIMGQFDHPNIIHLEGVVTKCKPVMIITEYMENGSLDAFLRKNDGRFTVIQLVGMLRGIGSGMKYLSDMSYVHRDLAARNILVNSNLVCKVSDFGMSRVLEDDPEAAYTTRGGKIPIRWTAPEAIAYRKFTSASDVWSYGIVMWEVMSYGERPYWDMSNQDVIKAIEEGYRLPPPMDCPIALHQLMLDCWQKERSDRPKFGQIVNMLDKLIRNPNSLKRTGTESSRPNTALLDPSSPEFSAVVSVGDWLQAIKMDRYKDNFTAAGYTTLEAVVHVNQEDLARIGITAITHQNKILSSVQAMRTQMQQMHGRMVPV

EPHB1 (human) = EPHB1 (human) (UniProt P54762)
EPHB4 (human) = EPHB4 (human) (UniProt P54760); details: compound 100.0 µM
FLT1 (human) = FLT1 (human) (UniProt P17948)
Sequence of FLT1 (human) (P17948 whole entry, looked up): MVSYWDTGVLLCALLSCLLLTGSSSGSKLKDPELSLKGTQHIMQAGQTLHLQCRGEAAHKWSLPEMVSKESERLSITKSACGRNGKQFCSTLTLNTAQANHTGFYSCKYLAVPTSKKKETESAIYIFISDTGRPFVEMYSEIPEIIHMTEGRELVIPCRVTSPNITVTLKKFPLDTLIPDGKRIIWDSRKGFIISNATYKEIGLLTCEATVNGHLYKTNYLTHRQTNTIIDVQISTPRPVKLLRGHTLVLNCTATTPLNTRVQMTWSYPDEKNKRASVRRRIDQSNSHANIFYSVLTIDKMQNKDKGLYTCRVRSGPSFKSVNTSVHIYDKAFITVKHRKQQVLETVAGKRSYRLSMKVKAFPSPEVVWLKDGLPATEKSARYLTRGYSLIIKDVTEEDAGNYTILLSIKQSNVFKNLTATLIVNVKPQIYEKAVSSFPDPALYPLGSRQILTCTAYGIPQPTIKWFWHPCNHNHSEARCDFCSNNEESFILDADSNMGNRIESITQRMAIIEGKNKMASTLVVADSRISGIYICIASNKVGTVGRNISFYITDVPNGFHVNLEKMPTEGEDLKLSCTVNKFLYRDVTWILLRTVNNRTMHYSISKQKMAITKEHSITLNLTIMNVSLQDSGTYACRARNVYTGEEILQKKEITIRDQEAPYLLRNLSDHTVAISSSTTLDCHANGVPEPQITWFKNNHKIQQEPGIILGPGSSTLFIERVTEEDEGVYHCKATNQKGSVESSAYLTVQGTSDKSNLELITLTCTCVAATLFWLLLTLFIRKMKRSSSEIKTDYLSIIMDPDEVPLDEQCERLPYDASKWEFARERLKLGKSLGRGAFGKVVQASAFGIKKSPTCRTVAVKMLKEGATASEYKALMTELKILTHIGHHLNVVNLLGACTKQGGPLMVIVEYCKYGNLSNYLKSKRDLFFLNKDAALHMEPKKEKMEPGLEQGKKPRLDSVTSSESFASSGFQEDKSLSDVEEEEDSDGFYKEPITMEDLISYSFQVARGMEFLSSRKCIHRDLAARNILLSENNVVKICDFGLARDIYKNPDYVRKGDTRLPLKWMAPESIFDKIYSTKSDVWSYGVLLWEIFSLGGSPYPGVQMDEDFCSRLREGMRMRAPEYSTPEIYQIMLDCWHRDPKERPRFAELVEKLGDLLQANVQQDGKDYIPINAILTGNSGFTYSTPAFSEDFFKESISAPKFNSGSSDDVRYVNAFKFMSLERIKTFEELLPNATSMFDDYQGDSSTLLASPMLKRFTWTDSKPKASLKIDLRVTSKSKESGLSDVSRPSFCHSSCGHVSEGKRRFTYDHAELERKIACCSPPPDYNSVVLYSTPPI

IKBKB (human) = IKBKB (human) (UniProt O14920)
Sequence of IKBKB (human) (O14920 whole entry, looked up): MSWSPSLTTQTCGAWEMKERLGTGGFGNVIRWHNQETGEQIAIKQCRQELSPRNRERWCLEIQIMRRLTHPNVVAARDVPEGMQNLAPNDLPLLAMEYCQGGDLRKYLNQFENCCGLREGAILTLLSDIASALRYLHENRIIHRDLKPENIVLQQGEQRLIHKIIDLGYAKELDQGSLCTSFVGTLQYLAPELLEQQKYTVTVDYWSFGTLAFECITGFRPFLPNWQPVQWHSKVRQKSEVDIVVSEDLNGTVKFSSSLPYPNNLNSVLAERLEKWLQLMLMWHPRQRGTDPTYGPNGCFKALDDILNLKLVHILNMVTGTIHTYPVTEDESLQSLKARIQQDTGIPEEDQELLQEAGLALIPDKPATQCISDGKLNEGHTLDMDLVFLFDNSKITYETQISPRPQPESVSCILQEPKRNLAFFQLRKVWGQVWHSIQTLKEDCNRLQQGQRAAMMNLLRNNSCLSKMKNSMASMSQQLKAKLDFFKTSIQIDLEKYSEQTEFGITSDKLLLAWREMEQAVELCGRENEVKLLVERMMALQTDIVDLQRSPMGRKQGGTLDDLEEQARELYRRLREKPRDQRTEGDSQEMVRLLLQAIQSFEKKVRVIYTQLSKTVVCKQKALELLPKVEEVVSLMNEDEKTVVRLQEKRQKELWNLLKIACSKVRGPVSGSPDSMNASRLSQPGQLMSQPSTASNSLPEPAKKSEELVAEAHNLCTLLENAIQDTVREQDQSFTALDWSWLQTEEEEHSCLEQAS

IKBKE (human) = IKBKE (human) (UniProt Q14164)
INSRR (human) = INSRR (human) (UniProt P14616)
MAP2K1 (human) = MAP2K1 (human) (UniProt Q02750)
MAPK1 (human) = MAPK1 (human) (UniProt P28482)
MAPK14 (human) = MAPK14 (human) (UniProt Q16539)
MAPK15 (human) = MAPK15 (human) (UniProt Q8TD08)
Sequence of MAPK15 (human) (Q8TD08 whole entry, looked up): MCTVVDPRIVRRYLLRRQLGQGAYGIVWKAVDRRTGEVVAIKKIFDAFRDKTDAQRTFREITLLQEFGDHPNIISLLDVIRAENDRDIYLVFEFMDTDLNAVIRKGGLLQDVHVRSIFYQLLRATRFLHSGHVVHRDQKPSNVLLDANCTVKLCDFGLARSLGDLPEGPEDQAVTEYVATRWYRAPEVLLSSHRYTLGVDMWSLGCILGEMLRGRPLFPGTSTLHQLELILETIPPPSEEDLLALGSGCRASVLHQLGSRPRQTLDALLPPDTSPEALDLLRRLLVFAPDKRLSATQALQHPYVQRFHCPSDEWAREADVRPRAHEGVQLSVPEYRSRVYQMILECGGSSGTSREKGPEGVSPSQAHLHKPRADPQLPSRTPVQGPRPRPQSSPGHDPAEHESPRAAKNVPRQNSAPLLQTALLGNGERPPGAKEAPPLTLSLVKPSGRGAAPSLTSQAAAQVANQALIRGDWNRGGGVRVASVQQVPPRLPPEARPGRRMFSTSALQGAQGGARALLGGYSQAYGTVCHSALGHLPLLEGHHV

MAPK3 (human) = MAPK3 (human) (UniProt P27361)
MAPKAPK3 (human) = MAPKAPK3 (human) (UniProt Q16644)
MKNK2 (human) = MKNK2 (human) (UniProt Q9HBH9)
Sequence of MKNK2 (human) (Q9HBH9 whole entry, looked up): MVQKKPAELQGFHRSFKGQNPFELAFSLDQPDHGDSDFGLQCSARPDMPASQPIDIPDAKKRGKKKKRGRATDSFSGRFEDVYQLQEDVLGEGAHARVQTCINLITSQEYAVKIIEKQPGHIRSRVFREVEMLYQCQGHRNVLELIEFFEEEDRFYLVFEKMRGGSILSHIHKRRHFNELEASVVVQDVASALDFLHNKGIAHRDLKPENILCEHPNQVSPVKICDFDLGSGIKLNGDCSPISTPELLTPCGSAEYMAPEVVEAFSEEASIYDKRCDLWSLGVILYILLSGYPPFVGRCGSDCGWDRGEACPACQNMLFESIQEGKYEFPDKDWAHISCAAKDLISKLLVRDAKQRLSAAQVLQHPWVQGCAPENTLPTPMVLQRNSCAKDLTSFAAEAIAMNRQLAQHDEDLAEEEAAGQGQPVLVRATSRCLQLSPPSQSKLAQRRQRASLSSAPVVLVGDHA

NEK2 (human) = NEK2 (human) (UniProt P51955)
NEK6 (human) = NEK6 (human) (UniProt Q9HC98); details: compound 10.0 µM
PAK7 (human) = PAK7 (human) (UniProt Q9P286)
Sequence of PAK7 (human) (Q9P286 whole entry, looked up): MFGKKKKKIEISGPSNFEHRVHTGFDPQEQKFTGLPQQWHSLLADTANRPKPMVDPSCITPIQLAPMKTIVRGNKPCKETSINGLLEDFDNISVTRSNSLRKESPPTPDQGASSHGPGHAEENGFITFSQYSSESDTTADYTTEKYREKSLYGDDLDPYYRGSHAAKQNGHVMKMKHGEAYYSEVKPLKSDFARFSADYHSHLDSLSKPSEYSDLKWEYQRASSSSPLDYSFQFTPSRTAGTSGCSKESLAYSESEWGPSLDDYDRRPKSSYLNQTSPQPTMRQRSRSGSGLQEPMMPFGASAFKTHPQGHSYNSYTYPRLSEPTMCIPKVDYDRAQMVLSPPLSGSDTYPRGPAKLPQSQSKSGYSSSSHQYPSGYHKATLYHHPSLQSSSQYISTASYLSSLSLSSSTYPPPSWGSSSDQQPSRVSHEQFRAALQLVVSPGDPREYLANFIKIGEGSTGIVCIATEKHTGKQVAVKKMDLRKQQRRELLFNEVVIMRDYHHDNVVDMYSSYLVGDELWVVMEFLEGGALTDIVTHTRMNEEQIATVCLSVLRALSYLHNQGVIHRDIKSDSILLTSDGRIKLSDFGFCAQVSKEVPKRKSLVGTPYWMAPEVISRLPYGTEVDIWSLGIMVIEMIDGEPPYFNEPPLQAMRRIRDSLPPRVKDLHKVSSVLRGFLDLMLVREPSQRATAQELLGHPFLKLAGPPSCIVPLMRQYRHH

PIM2 (human) = PIM2 (human) (UniProt Q9P1W9)
PLK1 (human) = PLK1 (human) (UniProt P53350)
PRKAA1 or PRKAA2 (rat) = details: accession and sequence are those of the human protein
PRKACA (human) = PRKACA (human) (UniProt P17612)
RIPK2 (human) = RIPK2 (human) (UniProt O43353)
RPS6KA1 KD1 KD2 (human) = RPS6KA1 KD1 KD2 (human) (UniProt Q15418)
RPS6KA3 KD1 KD2 (human) = RPS6KA3 KD1 KD2 (human) (UniProt P51812); details: compound 1000.0 µM
RPS6KA5 KD1 KD2 (human) = RPS6KA5 KD1 KD2 (human) (UniProt O75582)
[2] = system: RPS6KB1 (human), P23443 [T412E]
SRC (human) = SRC (human) (UniProt P12931)
SYK (human) = SYK (human) (UniProt P43405)
TTK (human) = TTK (human) (UniProt P33981)

## COC(=O)/C=C/C(=O)OC
[1]; compound 10.0 µM
  residual activity: 81%
[1]; compound 100.0 µM
  residual activity: 93%
[1]; compound 1000.0 µM
  residual activity: 106%
BTK (human)
  residual activity: 135%
CDK2 CCNA2 (human); compound 10.0 µM
  residual activity: 77%
CDK2 CCNA2 (human); compound 100.0 µM
  residual activity: 75%
CDK2 CCNA2 (human); compound 1000.0 µM
  residual activity: 87%
CHEK2 (human); compound 10.0 µM
  residual activity: 90%
CHEK2 (human); compound 100.0 µM
  residual activity: 98%
CHEK2 (human); compound 1000.0 µM
  residual activity: 100%
CSK (human); compound 10.0 µM
  residual activity: 87%
CSK (human); compound 100.0 µM
  residual activity: 82%
CSK (human); compound 1000.0 µM
  residual activity: 86%
CSNK1D (human); compound 10.0 µM
  residual activity: 88%
CSNK1D (human); compound 100.0 µM
  residual activity: 94%
CSNK1D (human); compound 1000.0 µM
  residual activity: 105%
EPHA4 (human); compound 10.0 µM
  residual activity: 98%
EPHA4 (human); compound 100.0 µM
  residual activity: 105%
EPHA4 (human); compound 1000.0 µM
  residual activity: 119%
EPHB1 (human); compound 10.0 µM
  residual activity: 101%
EPHB1 (human); compound 100.0 µM
  residual activity: 103%
EPHB1 (human); compound 1000.0 µM
  residual activity: 104%
EPHB4 (human)
  residual activity: 122%
FLT1 (human); compound 10.0 µM
  residual activity: 108%
FLT1 (human); compound 100.0 µM
  residual activity: 110%
FLT1 (human); compound 1000.0 µM
  residual activity: 98%
IKBKB (human); compound 10.0 µM
  residual activity: 84%
IKBKB (human); compound 100.0 µM
  residual activity: 91%
IKBKB (human); compound 1000.0 µM
  residual activity: 85%
IKBKE (human); compound 10.0 µM
  residual activity: 80%
IKBKE (human); compound 100.0 µM
  residual activity: 96%
IKBKE (human); compound 1000.0 µM
  residual activity: 93%
INSRR (human); compound 10.0 µM
  residual activity: 103%
INSRR (human); compound 100.0 µM
  residual activity: 108%
INSRR (human); compound 1000.0 µM
  residual activity: 112%
MAP2K1 (human); compound 100.0 µM
  residual activity: 109%
MAP2K1 (human); compound 1000.0 µM
  residual activity: 118%
MAPK1 (human); compound 10.0 µM
  residual activity: 85%
MAPK1 (human); compound 1000.0 µM
  residual activity: 105%
MAPK14 (human); compound 10.0 µM
  residual activity: 90%
MAPK14 (human); compound 100.0 µM
  residual activity: 99%
MAPK14 (human); compound 1000.0 µM
  residual activity: 106%
MAPK15 (human); compound 10.0 µM
  residual activity: 89%
MAPK15 (human); compound 100.0 µM
  residual activity: 100%
MAPK15 (human); compound 1000.0 µM
  residual activity: 96%
MAPK3 (human); compound 10.0 µM
  residual activity: 95%
MAPK3 (human); compound 100.0 µM
  residual activity: 99%
MAPK3 (human); compound 1000.0 µM
  residual activity: 100%
MAPKAPK3 (human); compound 10.0 µM
  residual activity: 87%
MAPKAPK3 (human); compound 100.0 µM
  residual activity: 97%
MKNK2 (human); compound 10.0 µM
  residual activity: 101%
MKNK2 (human); compound 100.0 µM
  residual activity: 107%
MKNK2 (human); compound 1000.0 µM
  residual activity: 110%
NEK2 (human); compound 10.0 µM
  residual activity: 100%
NEK2 (human); compound 100.0 µM
  residual activity: 100%
NEK2 (human); compound 1000.0 µM
  residual activity: 102%
NEK6 (human)
  residual activity: 103%
PAK7 (human); compound 10.0 µM
  residual activity: 87%
PAK7 (human); compound 100.0 µM
  residual activity: 125%
PAK7 (human); compound 1000.0 µM
  residual activity: 93%
PIM2 (human); compound 10.0 µM
  residual activity: 117%
PIM2 (human); compound 100.0 µM
  residual activity: 109%
PIM2 (human); compound 1000.0 µM
  residual activity: 116%
PLK1 (human); compound 10.0 µM
  residual activity: 94%
PLK1 (human); compound 100.0 µM
  residual activity: 100%
PLK1 (human); compound 1000.0 µM
  residual activity: 91%
PRKAA1 or PRKAA2 (rat); compound 10.0 µM
  residual activity: 106%
PRKAA1 or PRKAA2 (rat); compound 100.0 µM
  residual activity: 104%
PRKAA1 or PRKAA2 (rat); compound 1000.0 µM
  residual activity: 109%
PRKACA (human); compound 10.0 µM
  residual activity: 92%
PRKACA (human); compound 100.0 µM
  residual activity: 96%
PRKACA (human); compound 1000.0 µM
  residual activity: 99%
RIPK2 (human); compound 10.0 µM
  residual activity: 93%
RIPK2 (human); compound 100.0 µM
  residual activity: 104%
RIPK2 (human); compound 1000.0 µM
  residual activity: 111%
RPS6KA1 KD1 KD2 (human); compound 10.0 µM
  residual activity: 91%
RPS6KA1 KD1 KD2 (human); compound 100.0 µM
  residual activity: 92%
RPS6KA1 KD1 KD2 (human); compound 1000.0 µM
  residual activity: 90%
RPS6KA3 KD1 KD2 (human)
  residual activity: 117%
RPS6KA5 KD1 KD2 (human); compound 10.0 µM
  residual activity: 107%
RPS6KA5 KD1 KD2 (human); compound 100.0 µM
  residual activity: 105%
[2]; compound 10.0 µM
  residual activity: 99%
[2]; compound 100.0 µM
  residual activity: 101%
[2]; compound 1000.0 µM
  residual activity: 115%
SRC (human); compound 100.0 µM
  residual activity: 104%
SRC (human); compound 1000.0 µM
  residual activity: 103%
SYK (human); compound 10.0 µM
  residual activity: 106%
SYK (human); compound 100.0 µM
  residual activity: 118%
SYK (human); compound 1000.0 µM
  residual activity: 116%
TTK (human); compound 10.0 µM
  residual activity: 98%
TTK (human); compound 100.0 µM
  residual activity: 93%
TTK (human); compound 1000.0 µM
  residual activity: 93%
